Test system: 883617-216-R-J1-PDC complex spheroids, growth, % test/control
Experiment: Anticancer human tumor 883617-216-R-J1-PDC patient-derived bladder carcinoma cell line growth inhibition [AhR]
Settings: for IC50: curve of first compound; for viability, T/C: stronger effect = lower value
In short: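 Spheroids combined tumor cells with HUVEC endothelial cells and human MSCs as stroma. AhR antagonists were paired with standard or investigational drugs, each dosed in half-log steps down from near clinical Cmax, or from 10 microM where Cmax was unknown.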

[1] = second compound 0.1 µM, first compound 0.0316 µM
[2] = second compound 0.1 µM, first compound 0.1 µM
[3] = second compound 0.1 µM, first compound 0.316 µM
[4] = second compound 0.1 µM, first compound 1 µM
[5] = second compound 0.1 µM, first compound 3.16 µM
[6] = second compound 0.1 µM, first compound 10 µM
[7] = second compound 0.316 µM, first compound 0.0316 µM
[8] = second compound 0.316 µM, first compound 0.1 µM
[9] = second compound 0.316 µM, first compound 0.316 µM
[10] = second compound 0.316 µM, first compound 1 µM
[11] = second compound 0.316 µM, first compound 3.16 µM
[12] = second compound 0.316 µM, first compound 10 µM
[13] = second compound 1 µM, first compound 0.0316 µM
[14] = second compound 1 µM, first compound 0.1 µM
[15] = second compound 1 µM, first compound 0.316 µM
[16] = second compound 1 µM, first compound 1 µM
[17] = second compound 1 µM, first compound 3.16 µM
[18] = second compound 1 µM, first compound 10 µM
[19] = second compound 3.16 µM, first compound 0.0316 µM
[20] = second compound 3.16 µM, first compound 0.1 µM
[21] = second compound 3.16 µM, first compound 0.316 µM
[22] = second compound 3.16 µM, first compound 1 µM
[23] = second compound 3.16 µM, first compound 3.16 µM
[24] = second compound 3.16 µM, first compound 10 µM
[25] = second compound 10 µM, first compound 0.0316 µM
[26] = second compound 10 µM, first compound 0.1 µM
[27] = second compound 10 µM, first compound 0.316 µM
[28] = second compound 10 µM, first compound 1 µM
[29] = second compound 10 µM, first compound 3.16 µM
[30] = second compound 10 µM, first compound 10 µM
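Further: exposure lasted 7 days after dosing on day 3 of spheroid growth.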

IC50 (second compound 0.1 µM) [µM]	IC50 (second compound 0.316 µM) [µM]	IC50 (second compound 1 µM) [µM]	IC50 (second compound 3.16 µM) [µM]	IC50 (second compound 10 µM) [µM]	Compound	viability, T/C [1] [%]	viability, T/C [2] [%]	viability, T/C [3] [%]	viability, T/C [4] [%]	viability, T/C [5] [%]	viability, T/C [6] [%]	viability, T/C [7] [%]	viability, T/C [8] [%]	viability, T/C [9] [%]	viability, T/C [10] [%]	viability, T/C [11] [%]	viability, T/C [12] [%]	viability, T/C [13] [%]	viability, T/C [14] [%]	viability, T/C [15] [%]	further results
3.45	2.3	2.42	1.78	1.69	COc1ccc([C@@H](O)c2cc(-c3ncnc4cc(N5CCOCC5)ccc34)c(F)cc2Cl)nn1 + Cc1ccccc1N=Nc1ccc(NC(=O)c2ccnn2C)c(C)c1	97.8	91.4	81.3	67.8	51.4	33.8	83.7	84.9	78.3	61.4	46.4	33.9	91.1	80.7	72.8	viability, T/C [16]: 60.2%; viability, T/C [17]: 47.2%; viability, T/C [18]: 32.6%; viability, T/C [19]: 76.8%; viability, T/C [20]: 80%; viability, T/C [21]: 76.1%; viability, T/C [22]: 58.2%; viability, T/C [23]: 41.9%; viability, T/C [24]: 32.9%; viability, T/C [25]: 75.4%; viability, T/C [26]: 74.2%; viability, T/C [27]: 64.5%; viability, T/C [28]: 57.3%; viability, T/C [29]: 42.3%; viability, T/C [30]: 34.2%
> 10	> 10	> 10	> 10	> 10	CC(C)c1c(-c2ccccc2)nc2c(C#N)c[nH]n2c1=O + CC(CO)NC(=O)c1cc(-c2ccc(Cl)cc2)nn(-c2cnn(C)c2)c1=O	77.3	71.2	66.1	70.4	84.5	96	94.8	85.2	65.7	74	91.4	75.6	59.7	97.8	103	viability, T/C [16]: 92.6%; viability, T/C [17]: 87.1%; viability, T/C [18]: 78.3%; viability, T/C [19]: 95.2%; viability, T/C [20]: 92.5%; viability, T/C [21]: 75.2%; viability, T/C [22]: 79.3%; viability, T/C [23]: 51%; viability, T/C [24]: 57.7%; viability, T/C [25]: 79.4%; viability, T/C [26]: 87.1%; viability, T/C [27]: 106%; viability, T/C [28]: 57.8%; viability, T/C [29]: 64%; viability, T/C [30]: 62.5%

Reference: PubChem BioAssay AID1919004 (Molecular Pharmacology Branch, DTP, NCI, 2023)
